Assay results reported in ChEMBL document CHEMBL1201862, “PubChem BioAssay data set” (2004).
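In this assay, cells in 96-well plates receive the compound at five concentrations for 48 hours. Endpoints are linearly interpolated between the surrounding concentrations. Abbreviation: GI50, concentration required for 50% inhibition of growth.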 Active and inactive are the calls of the source. Cut-off read from the data, not from the text of the source: active = GI50 up to about 1.1 µM and inactive = higher.

Columns and labels:
Assay in all cases: NCI tumour cell line growth inhibition, 48 h
SW-620 = tested on: SW-620
LOX IMVI = tested on: LOX IMVI
RPMI-8226 = tested on: RPMI-8226
MOLT-4 = tested on: MOLT-4
HCT-15 = tested on: HCT-15
BT-549 = tested on: BT-549
CAKI-1 = tested on: CAKI-1
MDA-N = tested on: MDA-N
U-251 = tested on: U-251
UACC-62 = tested on: UACC-62
OVCAR-5 = tested on: OVCAR-5
HCC 2998 = tested on: HCC 2998
SK-MEL-28 = tested on: SK-MEL-28
UO-31 = tested on: UO-31
HT-29 = tested on: HT-29
Malme-3M = tested on: Malme-3M
HCT-116 = tested on: HCT-116
SN12C = tested on: SN12C
PC-3 = tested on: PC-3
SF-268 = tested on: SF-268
Hs-578T = tested on: Hs-578T
IGROV-1 = tested on: IGROV-1
OVCAR-8 = tested on: OVCAR-8
SR = tested on: SR
TK-10 = tested on: TK-10
A549 = tested on: A549
SF-539 = tested on: SF-539
COLO 205 = tested on: COLO 205
SK-MEL-2 = tested on: SK-MEL-2
NCI-H226 = tested on: NCI-H226
HL-60 = tested on: HL-60
HOP-62 = tested on: HOP-62
MDA-MB-231 = tested on: MDA-MB-231
ACHN = tested on: ACHN
MDA-MB-435 = tested on: MDA-MB-435
K562 = tested on: K562
786-0 = tested on: 786-0
DU-145 = tested on: DU-145
MCF7 = tested on: MCF7
M14 = tested on: M14
SF-295 = tested on: SF-295
NCI-H23 = tested on: NCI-H23
NCI/ADR-RES = tested on: NCI/ADR-RES
RXF 393 = tested on: RXF 393
OVCAR-3 = tested on: OVCAR-3
NCI-H522 = tested on: NCI-H522
SK-MEL-5 = tested on: SK-MEL-5
KM12 = tested on: KM12
SNB-19 = tested on: SNB-19
SK-OV-3 = tested on: SK-OV-3
A498 = tested on: A498
CCRF-CEM = tested on: CCRF-CEM
NCI-H460 = tested on: NCI-H460
UACC-257 = tested on: UACC-257
T47D = tested on: T47D
EKVX = tested on: EKVX
HOP-92 = tested on: HOP-92
OVCAR-4 = tested on: OVCAR-4

CCCCCCCCCCCCOC1C(COCCN2CCCCC2)OC2OC(C)(C)OC21 (stereo unspecified)
GI50 (SW-620): 1.77 µM (inactive)
GI50 (LOX IMVI): 1.55 µM (inactive)
GI50 (RPMI-8226): 1.52 µM (inactive)
GI50 (MOLT-4): 1.53 µM (inactive)
GI50 (HCT-15): 1.79 µM
GI50 (BT-549): 2.21 µM (inactive)
GI50 (CAKI-1): 1.73 µM (inactive)
GI50 (MDA-N): 1.53 µM (inactive)
GI50 (U-251): 2.02 µM (inactive)
GI50 (UACC-62): 1.84 µM (inactive)
GI50 (OVCAR-5): 1.85 µM (inactive)
GI50 (HCC 2998): 1.64 µM (inactive)
GI50 (SK-MEL-28): 1.82 µM (inactive)
GI50 (UO-31): 1.59 µM (inactive)
GI50 (HT-29): 1.21 µM (inactive)
GI50 (Malme-3M): 1.86 µM (inactive)
GI50 (HCT-116): 1.67 µM (inactive)
GI50 (SN12C): 2.21 µM (inactive)
GI50 (PC-3): 1.75 µM (inactive)
GI50 (SF-268): 2.67 µM (inactive)
GI50 (Hs-578T): 2 µM (inactive)
GI50 (IGROV-1): 1.83 µM (inactive)
GI50 (OVCAR-8): 1.8 µM (inactive)
GI50 (SR): < 0.01 µM (active)
GI50 (TK-10): 1.83 µM (inactive)
GI50 (A549): 6.58 µM (inactive)
GI50 (SF-539): 1.76 µM (inactive)
GI50 (COLO 205): 1.66 µM (inactive)
GI50 (SK-MEL-2): 1.73 µM (inactive)
GI50 (NCI-H226): 3.99 µM (inactive)
GI50 (HL-60): 1.24 µM (inactive)
GI50 (HOP-62): 1.84 µM (inactive)
GI50 (MDA-MB-231): 1.91 µM (inactive)
GI50 (ACHN): 2.12 µM (inactive)
GI50 (MDA-MB-435): 1.76 µM (inactive)
GI50 (K562): 1.11 µM (active)
GI50 (786-0): 1.73 µM (inactive)
GI50 (DU-145): 10 µM (inactive)
GI50 (MCF7): 1.73 µM (inactive)
GI50 (M14): 1.63 µM (inactive)
GI50 (SF-295): 1.69 µM (inactive)
GI50 (NCI-H23): 2.47 µM (inactive)
GI50 (NCI/ADR-RES): 4.3 µM (inactive)
GI50 (RXF 393): 1.7 µM (inactive)
GI50 (OVCAR-3): 2.5 µM (inactive)
GI50 (NCI-H522): 1.59 µM (inactive)
GI50 (SK-MEL-5): 1.58 µM (inactive)
GI50 (KM12): 1.64 µM (inactive)
GI50 (SNB-19): 2.5 µM (inactive)
GI50 (SK-OV-3): 4.08 µM (inactive)
GI50 (A498): 14.8 µM (inactive)
GI50 (CCRF-CEM): 1.1 µM (active)
GI50 (NCI-H460): 1.9 µM (inactive)
GI50 (UACC-257): 1.74 µM (inactive)
GI50 (T47D): 1.94 µM (inactive)

Nc1nc(O)c2c(n1)NCN(c1ccc(S(N)(=O)=O)cc1)C2
GI50 (SW-620): > 100 µM (inactive)
GI50 (LOX IMVI): > 100 µM (inactive)
GI50 (RPMI-8226): > 100 µM (inactive)
GI50 (MOLT-4): > 100 µM (inactive)
GI50 (HCT-15): > 100 µM
GI50 (BT-549): > 100 µM (inactive)
GI50 (CAKI-1): > 100 µM (inactive)
GI50 (MDA-N): > 100 µM (inactive)
GI50 (U-251): > 100 µM (inactive)
GI50 (UACC-62): > 100 µM (inactive)
GI50 (OVCAR-5): > 100 µM (inactive)
GI50 (SK-MEL-28): > 100 µM (inactive)
GI50 (UO-31): > 100 µM (inactive)
GI50 (HT-29): > 100 µM (inactive)
GI50 (Malme-3M): > 100 µM (inactive)
GI50 (HCT-116): > 100 µM (inactive)
GI50 (SN12C): > 100 µM (inactive)
GI50 (PC-3): > 100 µM (inactive)
GI50 (SF-268): > 100 µM (inactive)
GI50 (Hs-578T): > 100 µM (inactive)
GI50 (IGROV-1): > 100 µM (inactive)
GI50 (OVCAR-8): > 100 µM (inactive)
GI50 (SR): > 100 µM (inactive)
GI50 (TK-10): > 100 µM (inactive)
GI50 (A549): > 100 µM (inactive)
GI50 (EKVX): > 100 µM (inactive)
GI50 (COLO 205): > 100 µM (inactive)
GI50 (SK-MEL-2): > 100 µM (inactive)
GI50 (NCI-H226): > 100 µM (inactive)
GI50 (HOP-62): 71 µM (inactive)
GI50 (MDA-MB-231): > 100 µM (inactive)
GI50 (ACHN): > 100 µM (inactive)
GI50 (MDA-MB-435): > 100 µM (inactive)
GI50 (K562): > 100 µM (inactive)
GI50 (786-0): > 100 µM (inactive)
GI50 (DU-145): > 100 µM (inactive)
GI50 (HOP-92): > 100 µM (inactive)
GI50 (MCF7): > 100 µM (inactive)
GI50 (M14): > 100 µM (inactive)
GI50 (SF-295): 85.9 µM (inactive)
GI50 (OVCAR-4): > 100 µM (inactive)
GI50 (NCI/ADR-RES): > 100 µM (inactive)
GI50 (OVCAR-3): > 100 µM (inactive)
GI50 (NCI-H522): > 100 µM (inactive)
GI50 (SK-MEL-5): > 100 µM (inactive)
GI50 (KM12): > 100 µM (inactive)
GI50 (SNB-19): > 100 µM (inactive)
GI50 (A498): > 100 µM (inactive)
GI50 (NCI-H460): > 100 µM (inactive)
GI50 (UACC-257): > 100 µM (inactive)
GI50 (T47D): > 100 µM (inactive)
